Patent publication US10905691B2, “Use of triazolo(4,5-d)pyrimidine derivatives for prevention and treatment of bacterial infection” (Universite de Liege, priority 2016, dated 2021)
Like-named read-outs stand apart in the source and are kept apart here.

What was measured:
[1] = tested on: Staphylococcus epidermidis (ATCC 35984, also known as RP62A); experiment: MIC determination (EUCAST, Mueller-Hinton broth); format: cell-based
Protocol: The Minimal Inhibitory Concentration (MIC) and the Minimal Bactericidal Concentration (MBC) of Triafluocyl were determined in Staphylococcus epidermidis (ATCC 35984, also known as RP62A) according to EUCAST (European Committee on Antimicrobial Susceptibility Testing) recommendations.
Briefly, a single colony grown on a Tryptic Soy Agar (TSA) plate was resuspended and cultured in Tryptic Soy Broth (TSB) overnight (O/N) in aerobic conditions (37° C. with 220 rpm shaking), next day a 1:50 inoculum in Mueller-Hinton broth (MHB) was incubated in aerobic conditions for 3 hr and an inoculum of 1:100 dilution, corresponding to 3×10^5 CFU/ml, was incubated in presence or absence of different concentrations of Triafluocyl in 1% DMSO (vehicle). After O/N growth the OD of each culture was measured at 600 nm in a spectrophotometer (OD600). The MIC represents the concentration at which there is no visible growth of bacteria, i.e. ΔOD at 600 nm equal to zero (blank is the medium alone).
The Minimal Inhibitory Concentration (MIC) and the Minimal Bactericidal Concentration (MBC) of Fluometacyl were determined on several gram-positive strains (Table 2) following EUCAST (European Committee on Antimicrobial susceptibility Testing) recommendations.
For MIC determination a single colony was resuspended and cultured in the appropriate bacteria-specific medium (TSB: Tryptic Soy Broth for S. aureus atcc 25904 and S. epidermidis and BHI: brain-heart infusion medium for all the other strains) overnight (O/N) in aerobic conditions (37° C. with 220 rpm shaking), next day a 1:100 inoculum was incubated in Mueller-Hinton broth (MHB) in aerobic conditions for 3 hr (OD600=0.08-0.1). A further inoculum, 1:300 dilution of the MHB culture, corresponding to 3×10^5 CFU/ml, was grown in presence or absence of different concentrations of Fluometacyl, 1% DMSO in MHB for 20 hr.

[2] = tested on: E. faecalis vancomycin-resistant (VRE) ATCC BAA-2365; experiment: MIC determination (EUCAST, Mueller-Hinton broth); format: cell-based; conditions: Enterococcus faecalis
Protocol: (§1) Further experiments were conducted using different strains of E. faecalis, as clinically relevant Gram-positive bacterial strains: E. faecalis vancomycin-resistant (VRE) ATCC BAA-2365, and E. faecalis ATCC 29212 in order to determine the Minimal Inhibitory Concentration (MIC) which is the minimal concentration required to prevent bacterial growth; the Minimal Bactericidal Concentration (MBC) which determines the lowest concentration at which an antimicrobial agent kill a particular microorganism and a Minimum Duration for killing 99.9% bacteria (MDK99.9) which is a tolerance metric according to the EUCAST.
MIC determination: A single colony selected from the different strains of E. faecalis is resuspended and cultured in the appropriate medium overnight (O/N) in aerobic conditions (37° C. with 220 rpm shaking), next day a 1:100 inoculum in Mueller-Hinton broth (MHB) was incubated in aerobic conditions for 3 hr (OD=0.08-0.1) and an inoculum of 1:300 dilution, corresponding to 3×10^5 CFU/ml, was incubated in presence or absence of different concentrations of Triafluocyl in 1% DMSO. […]
The Minimal Inhibitory Concentration (MIC) and the Minimal Bactericidal Concentration (MBC) of Fluometacyl were determined on several gram-positive strains (Table 2) following EUCAST (European Committee on Antimicrobial susceptibility Testing) recommendations. […]

[3] = tested on: Glycopeptide intermediate-resistant (GISA) S. aureus Mu-50 (ATCC 700695); experiment: MBC and MDK99.9 determination (CFU counting); format: cell-based, Staphylococcus aureus; conditions: for MBC: Staphylococcus aureus, ATCC700695, cut-off 99.9% reduction in CFU
Protocol: as §1, with “S. aureus,” for “E. faecalis,”, “strains:” for “strains: E. faecalis vancomycin-resistant (VRE)”, “25904,” for “BAA-2365, and E. faecalis”, “6538, methilcillin-resistant S. aureus (MRSA) ATCC BAA-1556, Glycopeptide intermediate-resistant (GISA) S. aureus Mu-50 (ATCC 700695)” for “29212”
(§2) MBC and MDK99.9 determination: A single colony selected from the different strains of S. aureus is resuspended and cultured in the appropriate medium (TSB, or BHI) overnight (O/N) in aerobic conditions (37° C. with 220 rpm shaking), next day a 1:100 inoculum in the appropriate medium was incubated in aerobic conditions for 2 h. The culture is then challenged with triafluocyl at MIC concentration or higher concentrations. Bacterial growth was measured after different time intervals by counting the colony-forming units after plating appropriate culture dilutions on BHI agar plates. […] And the real time needed is defined as the MDK99.9. MBC for Triafluocyl against S. aureus ATCC 25904, ATCC 6538, methilcillin-resistant S. aureus (MRSA) ATCC BAA-1556, Glycopeptide intermediate-resistant (GISA), and S. aureus Mu-50 (ATCC 700695) were 20 μg/ml for each of them. MDK99.9 for Triafluocyl against S. aureus ATCC 25904, ATCC 6538, methilcillin-resistant S. aureus (MRSA) ATCC BAA-1556, Glycopeptide intermediate-resistant (GISA), and S. aureus Mu-50 (ATCC 700695) were 10, 6, 2, and 14 hours, respectively.
(§3) For MBC determination a 1:100 inoculum of an O/N culture (prepared like before) was incubated in aerobic conditions for 2 h in bacteria-specific medium. The culture was then challenged with Fluometacyl at the MIC concentration or higher. Bacterial growth was measured after different time intervals by counting the colony-forming units (CFU) after plating appropriate culture dilutions on bacteria-specific medium agar plates.

S. aureus ATCC 25904 = experiment: MBC and MDK99.9 determination (CFU counting); format: cell-based, Staphylococcus aureus; conditions: for MBC: Staphylococcus aureus, ATCC25904, cut-off 99.9% reduction in CFU
Protocol: as §1, with “S. aureus,” for “E. faecalis,”, “strains:” for “strains: E. faecalis vancomycin-resistant (VRE)”, “25904,” for “BAA-2365, and E. faecalis”, “6538, methilcillin-resistant S. aureus (MRSA) ATCC BAA-1556, Glycopeptide intermediate-resistant (GISA) S. aureus Mu-50 (ATCC 700695)” for “29212”
as §2, §3

[4] = tested on: methilcillin-resistant S. aureus (MRSA) ATCC BAA-1556; experiment: MBC and MDK99.9 determination (CFU counting); format: cell-based, Staphylococcus aureus; conditions: for MBC: Staphylococcus aureus, cut-off 99.9% reduction in CFU
Protocol: as §1, with “S. aureus,” for “E. faecalis,”, “strains:” for “strains: E. faecalis vancomycin-resistant (VRE)”, “25904,” for “BAA-2365, and E. faecalis”, “6538, methilcillin-resistant S. aureus (MRSA) ATCC BAA-1556, Glycopeptide intermediate-resistant (GISA) S. aureus Mu-50 (ATCC 700695)” for “29212”
as §2, §3

[5] = Staphylococcus epidermidis, ATCC35984, S. epidermidis, read-out: MIC

MIC [1, 5] | MIC [2] | MIC ([1]; S. epidermidis) | SMILES | MBC ([3]; S. aureus MU50 GISA) | MBC (S. aureus ATCC 25904) | MBC [4] | MDK 99.9 Time (h) needed to kill 99.9% of the started inoculum ([3]; S. aureus Mu50 GISA) | MBC ([3]; S. aureus Mu50 GISA) | MDK 99.9 Time (h) needed to kill 99.9% of the started inoculum (S. aureus ATCC 25904) | MDK 99.9 Time (h) needed to kill 99.9% of the started inoculum [4]
30 µM | 38 µM |  | CCCSc1nc(N[C@@H]2C[C@H]2c2ccc(F)c(F)c2)c2nnn([C@@H]3C[C@H](O)[C@@H](O)[C@H]3O)c2n1 [Fluometacyl, (1S,2R,3S,4R)-4-[7-[[(1R,2S)-2-(3,4-Difluorophenyl)cyclopropyl]amino]-5-(propylthio)-3H-1,2,3-triazolo[4,5-d]pyrimidin-3-yl]-1,2,3-cyclopentanetriol] | 38 µM | 38 µM | 38 µM |  |  |  | 
12 ± 3 µg/mL | 20 µg/mL | 15 µg/mL | CCCSc1nc(N[C@@H]2C[C@H]2c2ccc(F)c(F)c2)c2nnn([C@@H]3C[C@H](OCCO)[C@@H](O)[C@H]3O)c2n1 [Triafluocyl, (1S,2S,3R,5S)-3-[7-[(1R,2S)-2-(3,4-difluorophenyl)cyclopropylamino]-5-(propylthio)-3H-[1,2,3]-triazolo[4,5-d]pyrimidin-3-yl]-5-(2-hydroxyethoxy)-1,2-cyclopentanediol] |  | 20 µg/mL | 20 µg/mL | 14 h | 20 µg/mL | 10 h | 2 h
